Measured values from patent US20040259783A1, “Pharmaceutical compositions of marine sponge microciona prolifera” (priority 2001, published 2004).

Experiments:
[1] = test system: rat aortic smooth muscle cells, A-10; experiment: Smooth muscle cell migration in vitro assay (scrape injury); assay type: cell-based; conditions: concentration giving 100% inhibition of smooth muscle cell motility, incubation up to 24 hrs
Description: The following in vitro assays were conducted to illustrate the effect of peptides, carbohydrates and extract (2.7K) on the smooth muscle cell migration. The cells used in the following example were rat aortic smooth muscle cells, A-10. The cells were seeded at 2.5×10^5 cells/well in 6 well plates using Dulbecco's Modified Eagle Medium (Gibco BRL Cat. # 11885-084),10% FBS and 1% Antibiotic Antimycotic (Gibco BRL Cat. # 15240). Confluency of cells after about 8 hrs was between 80˜90%. Cells were injured with the single edge cell scraper (one injury/well) then washed twice with PBS and treated with peptides B-1 (SEQ ID NO:1), B-2 (SEQ ID NO:2 ), B-3 (SEQ ID NO: 3), B-6, (SEQ ID NO: 4), B-9(SEQ ID NO:5), B-10(SEQ ID NO:6) AND B-11(SEQ ID NO: 7) at concentrations ranging from 10 μg/ml ml to 100 μg/ml. Images were taken using a X5 modulation objective (Zeiss, Germany) attached to a Zeiss Axiovert 100 inverted microscope equipped with Hoffman Modulation contrast optical filters (Greenvale, N.Y.).
The images were taken at zero time and following the incubation of smooth muscle cells with peptide, carbohydrates and extracts for a period of up to 24 hrs (FIGS. 1, 2, 3 and 4).

EAE mouse model = EAE mouse model (acute EAE induced with MBP and PTX); assay type: in vivo; conditions: 5 mg/kg daily; for clinical signs of MS symptoms: improvement in mean clinical score and delay in progression to disability; for mean clinical score: day 15, scale of 0 to 5, PBS treated mice 1.7 (B-9 study), 1.5 (B-1 study)
Description: The EAE mouse model is the standard animal model used for testing therapeutic compounds in the treatment of multiple sclerosis (MS). Acute EAE was induced by immunization of 3 months old SJL/J female mice (Jackson Lab.; Bar Harbor, Me.) with the MBP (myelin basic protein) and PTX (pertussis toxin). Each animal received an s.c. injection at tail base of 200 μg MBP in 0.1 ml of CFA and received an i.v. injection of 200 ng of PTX; pertussis toxin was injected again 48 hours later. Mice (4 animals per group) were treated with the peptide B-1 (SEQ ID NO: 1) or peptide B-9 (SEQ ID NO: 5) at a dose of 5 mg/kg daily; injections starting on the day of first immunization. Treatment was stopped at time of sacrifice. Mice were monitored daily from day 7 after immunization for clinical signs of EAE and were scored on a scale of 0 to 5. A score of 0 represented the absence of signs while a score of 5 was given to moribund animals.

[2] = MAF carbohydrates and MAF 2.7 K extract

Molecule | 100% Inhibition of Cell Motility [1, 2] | 100% Inhibition of Cell Motility ([1]; MAFp3 peptides) | clinical signs of MS symptoms (EAE mouse model) | mean clinical score (EAE mouse model)
CC(=O)N[C@H]1[C@H](O[C@@H]2[C@H](O)[C@H](C)OC(O)[C@H]2O)O[C@H](CO)[C@@H](O)[C@@H]1O (stereo partly shown) [RR-1 disaccharides, GlcNAcβ1-3Fuc] | 5˜10 μg/mL | – | – | –
CC(=O)NC1C(OC2C(O)C(C)OC(O)C2O)OC(CO)C(OC2OC3COC(C)(C(=O)O)OC3C(O)C2O)C1O (stereo not shown) [RR-5 trisaccharides, (4,6-Pyr)Galβ1-4GlcNAcβ1-3Fuc] | 25 µg/mL | – | – | –
CFLTPHGVELHK (artificial peptide derived from Microciona prolifera) [Peptide B-10, 12 amino acid synthetic peptide derived from MAF] | – | 100 µg/mL | – | –
EDQLDAMNLS (artificial peptide derived from Microciona prolifera) [Peptide B-3, 10 amino acid synthetic peptide derived from MAF] | – | 50 µg/mL | – | –
GSGIGDEPTTS (artificial peptide derived from Microciona prolifera) [Peptide B-6, 11 amino acid synthetic peptide derived from MAF] | – | 50˜75 μg/ml | – | –
GVSVRRYRNRVRI (listed as Microciona prolifera) [Peptide B-1] | – | 100 µg/mL | significant attenuation | 0.7
NGSIGPRGLPGVRGDRGKRGK (artificial peptide derived from Microciona prolifera) [Peptide B-11] | – | 75˜100 μg/ml | – | –
RFVINITTSGSD (artificial peptide derived from Microciona prolifera) [Peptide B-9, 12 amino acid synthetic peptide derived from MAF] | – | 20 µg/mL | significant attenuation | 0.6
VGFDPYDYEVNEADG (artificial peptide derived from Microciona prolifera) [Peptide B-2, 15 amino acid synthetic peptide, derived from MAF] | – | 50 to 100 µg/mL | – | –
